Assay results reported in US12173007B2, “Imidazopyridazine IL-17 inhibitor compounds” (Janssen Pharmaceutica NV, priority 2021, dated 2024).

What was measured:
[1] = test system: IL-17A-induced G-CSF production in human normal keratinocyte (NHK); experiment: NHK assay: IL-17A-induced G-CSF production in normal human keratinocytes; type: cell-based; settings: Homo sapiens, Keratinocyte, 24 h, IL-17A 5 ng/mL, G-CSF by HTRF, average if tested more than once
Summary of the method: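 Compound titrations are first mixed with recombinant human IL-17A for 1 h at room temperature. The mixture goes onto adult normal human keratinocytes (final IL-17A 5 ng/mL, 5% FBS, 0.2% DMSO) for 24 h at 37 °C. Secreted G-CSF is then measured by HTRF and IC50 fitted.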

[2] = biological target: IL-17A(FLAG-Tagged): IL-17RA(His-Tagged) binding (Homo sapiens, UniProt Q16552, K93Q); experiment: IL-17A(FLAG-tagged):IL-17RA(His-tagged) binding disruption Eu-HTRF assay, Protocol 1; settings: FLAG-IL-17A 2.5 nM; average if tested more than once
Sequence of UniProt Q16552 (Q16552 with tags, fused parts or gaps K93Q): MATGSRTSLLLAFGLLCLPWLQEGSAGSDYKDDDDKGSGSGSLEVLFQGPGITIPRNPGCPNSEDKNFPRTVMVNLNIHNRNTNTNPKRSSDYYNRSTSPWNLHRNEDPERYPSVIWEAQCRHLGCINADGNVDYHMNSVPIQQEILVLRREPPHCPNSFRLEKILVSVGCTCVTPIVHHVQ
Text: IL-17A(FLAG-Tagged): IL-17RA(His-Tagged) Binding Disruption Eu-HTRF Assay
An antibody directed against the FLAG tag of IL-17A (SEQ ID NO: 1) is labeled with the HTRF donor chromophore (Europium-cryptate). IL-17A is present as a dimer that is “locked into” this quaternary structure due to the formation of loop-spanning […] disulfide bridges. The construct of IL-17RA used in the assay excludes the […] portion of the receptor and is fused to a C-terminal 10×His tag (SEQ ID NO:2). An antibody directed against the His tag of the IL-17RA chimera is labeled with the HTRF acceptor chromophore (“D2”). The fluorescence-resonance energy transfer (FRET) depends on the vicinity of the donor chromophore to the acceptor, and interruption of the binding between the IL-17A and IL-17RA causes the reduction/loss of FRET. Therefore, this assay allows to evaluate the compound effect on the binding IL-17A and IL-17RA by monitoring the fluorescence intensity of donor vs acceptor. The assay was run using either Protocol 1 or Protocol 2 as described below.
Protocol 1. 40 nl of 2-fold serial diluted compound solution for total 22 dilution points is added into each well of a 1536-well, white, low-volume, non-binding plate (Greiner #782904), then 2 μl of FLAG tagged IL-17A at 2×final concentration (2.5 nM) in solution of PBS+0.01% Triton-X100 is added to each well. The assay plate is briefly centrifuged then incubated for 1 h at rt. A mixed solution is prepared containing 2×5 nM 10HIS×IL-17RA, 2×2.5 nM Eu-anti-FLAG (CISBIO), 2×5 nM D2-anti-HIS (CISBIO) in PBS+0.01% Triton-X100+200 mM Potassium Fluoride (Sigma 60238) and 2 μl of mix is added to each well of the assay plate. The plate is briefly centrifuged then incubated for 2 h at rt. The HTRF intensities at the wavelength of donor (620 nm) and acceptor (665 nm) are measured using BMG Pherastar. The ratio between intensities at two wavelengths is calculated and plotted against the compound concentration and the data is fitted to a one-site competition model to yield IC50 of the compound.

## O=C(N[C@H](c1cn2ncc([C@@H](C3CC3)N3CC(F)(F)CNC3=O)cc2n1)C1CCC(F)(F)CC1)c1nonc1C1CC1 [Example 7, 4-Cyclopropyl-N—((S)-(7-((R)-cyclopropyl(5,5-difluoro-2-oxotetrahydropyrimidin-1(2H)-yl)methyl)imidazo[1,2-b]pyridazin-2-yl)(4,4-difluorocyclohexyl)methyl)-1,2,5-oxadiazole-3-carboxamide]
[1]
  IC50: < 0.05 µM
[2]
  IC50: < 0.05 µM

## Cc1nonc1C(=O)N[C@H](c1cn2ncc([C@@H](C3CC3)N3CC(F)(F)CNC3=O)cc2n1)C1CCC(F)(F)CC1 [Example 8, N—((S)-(7-((R)-Cyclopropyl(5,5-difluoro-2-oxotetrahydropyrimidin-1(2H)-yl)methyl)imidazo[1,2-b]pyridazin-2-yl)(4,4-difluorocyclohexyl)methyl)-4-methyl-1,2,5-oxadiazole-3-carboxamide]
[1]
  IC50: 0.05 to 0.1 µM
[2]
  IC50: < 0.05 µM

## [2H]C([2H])([2H])C([2H])([2H])n1nccc1C(=O)N[C@H](c1cn2ncc([C@@H](C3CC3)N3CC(F)(F)CNC3=O)cc2n1)C1CCC(F)(F)CC1 [Example 9, N—((S)-(7-((R)-Cyclopropyl(5,5-difluoro-2-oxotetrahydropyrimidin-1(2H)-yl)methyl)imidazo[1,2-b]pyridazin-2-yl)(4,4-difluorocyclohexyl)methyl)-1-(ethyl-d5)-1H-pyrazole-5-carboxamide]
[1]
  IC50: < 0.05 µM
[2]
  IC50: < 0.05 µM

## CC(C)n1nccc1C(=O)N[C@H](c1cn2ncc([C@@H](C3CC3)N3CC(F)(F)CNC3=O)cc2n1)C1CCC(F)(F)CC1 [Example 10, N—((S)-(7-((R)-Cyclopropyl(5,5-difluoro-2-oxotetrahydropyrimidin-1(2H)-yl)methyl)imidazo[1,2-b]pyridazin-2-yl)(4,4-difluorocyclohexyl)methyl)-1-isopropyl-1H-pyrazole-5-carboxamide]
[1]
  IC50: < 0.05 µM
[2]
  IC50: 0.05 to 0.1 µM

## COC[C@H](c1cnn2cc([C@@H](NC(=O)c3nonc3C)C3CCC(F)(F)CC3)nc2c1)N1CC(F)(F)CNC1=O [Example 12, N—((S)-(7-((S)-1-(5,5-Difluoro-2-oxotetrahydropyrimidin-1(2H)-yl)-2-methoxyethyl)imidazo[1,2-b]pyridazin-2-yl)(4,4-difluorocyclohexyl)methyl)-4-methyl-1,2,5-oxadiazole-3-carboxamide]
[1]
  IC50: < 0.05 µM
[2]
  IC50: < 0.05 µM

## [2H]C([2H])([2H])C([2H])([2H])n1nccc1C(=O)N[C@H](c1cn2ncc([C@@H](COC)N3CC(F)(F)CNC3=O)cc2n1)C1CCC(F)(F)CC1 [Example 13, N—((S)-(7-((S)-1-(5,5-Difluoro-2-oxotetrahydropyrimidin-1(2H)-yl)-2-methoxyethyl)imidazo[1,2-b]pyridazin-2-yl)(4,4-difluorocyclohexyl)methyl)-1-(ethyl-d5)-1H-pyrazole-5-carboxamide]
[1]
  IC50: < 0.05 µM
[2]
  IC50: 0.05 to 0.1 µM

## COC[C@H](c1cnn2cc([C@@H](NC(=O)c3ccnn3C(C)C)C3CCC(F)(F)CC3)nc2c1)N1CC(F)(F)CNC1=O [Example 14, N—((S)-(7-((S)-1-(5,5-Difluoro-2-oxotetrahydropyrimidin-1(2H)-yl)-2-methoxyethyl)imidazo[1,2-b]pyridazin-2-yl)(4,4-difluorocyclohexyl)methyl)-1-isopropyl-1H-pyrazole-5-carboxamide]
[1]
  IC50: < 0.05 µM
[2]
  IC50: 0.05 to 0.1 µM

## CC(C)(OC[C@H](NC(=O)c1nonc1C1CC1)c1cn2ncc(CN3CC(F)(F)CNC3=O)cc2n1)C(F)(F)F [Example 17, (R)-4-Cyclopropyl-N-(1-(7-((5,5-difluoro-2-oxotetrahydropyrimidin-1(2H)-yl)methyl)imidazo[1,2-b]pyridazin-2-yl)-2-((1,1,1-trifluoro-2-methylpropan-2-yl)oxy)ethyl)-1,2,5-oxadiazole-3-carboxamide]
[1]
  IC50: < 0.05 µM
[2]
  IC50: < 0.05 µM

## O=C(N[C@H](c1cn2ncc(CN3CCCNC3=O)cc2n1)C1CCC(F)(F)CC1)c1nonc1C1CC1 [Example 18, (S)-4-Cyclopropyl-N-((4,4-difluorocyclohexyl)(7-((2-oxotetrahydropyrimidin-1(2H)-yl)methyl)imidazo[1,2-b]pyridazin-2-yl)methyl)-1,2,5-oxadiazole-3-carboxamide]
[1]
  IC50: > 0.1 µM
[2]
  IC50: > 0.1 µM

## CC(C)n1nccc1C(=O)N[C@H](c1cn2ncc(CN3CCCNC3=O)cc2n1)C1CCC(F)(F)CC1 [Example 19, (S)—N-((4,4-Difluorocyclohexyl)(7-((2-oxotetrahydropyrimidin-1(2H)-yl)methyl)imidazo[1,2-b]pyridazin-2-yl)methyl)-1-isopropyl-1H-pyrazole-5-carboxamide]
[1]
  IC50: > 0.1 µM
[2]
  IC50: > 0.1 µM

## O=C(N[C@H](c1cn2ncc(CN3CC(F)(F)CNC3=O)cc2n1)C1CCC(F)(F)CC1)c1nonc1C1CC1 [Example 20, (S)-4-Cyclopropyl-N-((7-((5,5-difluoro-2-oxotetrahydropyrimidin-1(2H)-yl)methyl)imidazo[1,2-b]pyridazin-2-yl)(4,4-difluorocyclohexyl)methyl)-1,2,5-oxadiazole-3-carboxamide]
[1]
  IC50: < 0.05 µM
[2]
  IC50: < 0.05 µM

## CC(C)n1nccc1C(=O)N[C@H](c1cn2ncc(CN3CC(F)(F)CNC3=O)cc2n1)C1CCC(F)(F)CC1 [Example 21, (S)—N-((7-((5,5-Difluoro-2-oxotetrahydropyrimidin-1(2H)-yl)methyl)imidazo[1,2-b]pyridazin-2-yl)(4,4-difluorocyclohexyl)methyl)-1-isopropyl-1H-pyrazole-5-carboxamide]
[1]
  IC50: < 0.05 µM
[2]
  IC50: > 0.1 µM

## O=C(N[C@H](c1cn2ncc(CN3CC(F)(F)CNC3=O)cc2n1)C1CCC(F)(F)CC1)c1conc1COC(F)F [Example 22, (S)—N-((7-((5,5-Difluoro-2-oxotetrahydropyrimidin-1(2H)-yl)methyl)imidazo[1,2-b]pyridazin-2-yl)(4,4-difluorocyclohexyl)methyl)-3-((difluoromethoxy)methyl)isoxazole-4-carboxamide]
[1]
  IC50: 0.05 to 0.1 µM
[2]
  IC50: 0.05 to 0.1 µM

## CC(C)n1ncnc1C(=O)N[C@H](c1cn2ncc(CN3CC(F)(F)CNC3=O)cc2n1)C1CCC(F)(F)CC1 [Example 23, (S)—N-((7-((5,5-Difluoro-2-oxotetrahydropyrimidin-1(2H)-yl)methyl)imidazo[1,2-b]pyridazin-2-yl)(4,4-difluorocyclohexyl)methyl)-1-isopropyl-1H-1,2,4-triazole-5-carboxamide]
[1]
  IC50: > 0.1 µM
[2]
  IC50: > 0.1 µM

## O=C(N[C@H](c1cn2ncc(CN3CC(F)(F)CNC3=O)cc2n1)C1CCC(F)(F)CC1)c1cnn(CC2CC2)n1 [Example 24, (S)-2-(Cyclopropylmethyl)-N-((7-((5,5-difluoro-2-oxotetrahydropyrimidin-1(2H)-yl)methyl)imidazo[1,2-b]pyridazin-2-yl)(4,4-difluorocyclohexyl)methyl)-2H-1,2,3-triazole-4-carboxamide]
[1]
  IC50: > 0.1 µM
[2]
  IC50: > 0.1 µM

## [2H]C([2H])([2H])C([2H])([2H])n1nccc1C(=O)N[C@H](c1cn2ncc(CN3CC(F)(F)CNC3=O)cc2n1)C1CCC(F)(F)CC1 [Example 25, (S)—N-((7-((5,5-Difluoro-2-oxotetrahydropyrimidin-1(2H)-yl)methyl)imidazo[1,2-b]pyridazin-2-yl)(4,4-difluorocyclohexyl)methyl)-1-(ethyl-d5)-1H-pyrazole-5-carboxamide]
[1]
  IC50: < 0.05 µM
[2]
  IC50: 0.05 to 0.1 µM

## O=C(N[C@H](c1cn2ncc(CN3CC(F)(F)CNC3=O)cc2n1)C1CCC(F)(F)CC1)c1nonc1OCC(F)F [Example 26, (S)—N-((7-((5,5-Difluoro-2-oxotetrahydropyrimidin-1(2H)-yl)methyl)imidazo[1,2-b]pyridazin-2-yl)(4,4-difluorocyclohexyl)methyl)-4-(2,2-difluoroethoxy)-1,2,5-oxadiazole-3-carboxamide]
[1]
  IC50: < 0.05 µM
[2]
  IC50: < 0.05 µM

## O=C(N[C@H](c1cn2ncc(CN3CC(F)(F)CNC3=O)cc2n1)C1CCC(F)(F)CC1)c1cnn(CCC(F)(F)F)n1 [Example 27, (S)—N-((7-((5,5-Difluoro-2-oxotetrahydropyrimidin-1(2H)-yl)methyl)imidazo[1,2-b]pyridazin-2-yl)(4,4-difluorocyclohexyl)methyl)-2-(3,3,3-trifluoropropyl)-2H-1,2,3-triazole-4-carboxamide]
[1]
  IC50: > 0.1 µM
[2]
  IC50: > 0.1 µM
